Columns and labels:
Brain [1] = assay: Biodistribution in Sprague-Dawley rat brain at 14.8 to 18.5 MBq, iv measured at 30 mins post-injection by gamma counting analysis; format: ADME, organism-based; conditions: in vivo, 0.5 h
Cerebellum [2] = assay: Biodistribution in Sprague-Dawley rat cerebellum at 14.8 to 18.5 MBq, iv treated with MP-10 for 5 mins prior to compound administration measured at 30 mins post-injection by gamma counting analysis; format: ADME, organism-based; conditions: in vivo, 0.5 h
Plasma [3] = assay: Drug metabolism in iv dosed cynomolgus monkey plasma assessed as retention time of hydrophilic metabolite by HPLC analysis; format: ADME, organism-based, Macaca fascicularis; conditions: in vivo
Heart [4] = assay: Biodistribution in Sprague-Dawley rat heart at 14.8 to 18.5 MBq, iv measured at 30 mins post-injection by gamma counting analysis; format: ADME, organism-based; conditions: in vivo, 0.5 h
Heart [5] = assay: Biodistribution in Sprague-Dawley rat heart at 14.8 to 18.5 MBq, iv measured at 60 mins post-injection by gamma counting analysis; format: ADME, organism-based; conditions: in vivo, 1 h
Striatum [6] = assay: Biodistribution in Sprague-Dawley rat striatum at 14.8 to 18.5 MBq, iv measured at 5 mins post-injection by gamma counting analysis; format: ADME, organism-based; conditions: in vivo
Brain [7] = assay: Biodistribution in Sprague-Dawley rat brain at 14.8 to 18.5 MBq, iv treated with MP-10 for 5 mins prior to compound administration measured at 30 mins post-injection by gamma counting analysis; format: ADME, organism-based; conditions: in vivo, 0.5 h
Brain [8] = assay: Biodistribution in Sprague-Dawley rat brain at 14.8 to 18.5 MBq, iv measured at 60 mins post-injection by gamma counting analysis; format: ADME, organism-based; conditions: in vivo, 1 h
Striatum [9] = assay: Biodistribution in Sprague-Dawley rat striatum at 14.8 to 18.5 MBq, iv treated with MP-10 for 5 mins prior to compound administration measured at 30 mins post-injection by gamma counting analysis; format: ADME, organism-based; conditions: in vivo, 0.5 h
Plasma [10] = assay: Metabolic stability in iv dosed cynomolgus monkey plasma protein pellet under deproteinated condition assessed as compound remaining measured at 5 to 60 mins by HPLC analysis; format: ADME, organism-based, Macaca fascicularis; conditions: in vivo
Striatum [11] = assay: Biodistribution in Sprague-Dawley rat striatum at 14.8 to 18.5 MBq, iv measured at 30 mins post-injection by gamma counting analysis; format: ADME, organism-based; conditions: in vivo, 0.5 h
Liver [12] = assay: Biodistribution in Sprague-Dawley rat liver at 14.8 to 18.5 MBq, iv treated with MP-10 for 5 mins prior to compound administration measured at 30 mins post-injection by gamma counting analysis; format: ADME, organism-based; conditions: in vivo, 0.5 h
Blood [13] = assay: Biodistribution in Sprague-Dawley rat blood at 14.8 to 18.5 MBq, iv measured at 60 mins post-injection by gamma counting analysis; format: ADME, organism-based; conditions: in vivo, 1 h
Rattus norvegicus [14] = assay: Biodistribution in Sprague-Dawley rat fat at 14.8 to 18.5 MBq, iv measured at 60 mins post-injection by gamma counting analysis; format: ADME, organism-based, Adipose tissue; conditions: in vivo, 1 h
Nucleic Acid [15] = assay: Ratio of drug level in striatum to cerebellum in Sprague-Dawley rat at 14.8 to 18.5 MBq, iv measured at 30 mins post-injection by gamma counting analysis; format: ADME, organism-based; conditions: in vivo, 0.5 h
Muscle tissue [16] = assay: Biodistribution in Sprague-Dawley rat muscle at 14.8 to 18.5 MBq, iv measured at 5 mins post-injection by gamma counting analysis; format: ADME, organism-based; conditions: in vivo
[17] = Metabolic stability in iv dosed cynomolgus monkey RBC assessed as compound remaining measured at 5 to 60 mins by HPLC analysis; format: ADME, organism-based, Macaca fascicularis, Erythrocyte; conditions: in vivo
Liver [18] = assay: Biodistribution in Sprague-Dawley rat liver at 14.8 to 18.5 MBq, iv measured at 5 mins post-injection by gamma counting analysis; format: ADME, organism-based; conditions: in vivo
[19] = Biodistribution in cynomolgus monkey cerebellum at 260 to 370 MBq, iv measured at 20 to 100 mins post-injection by microPET analysis; format: ADME, organism-based, Macaca fascicularis; conditions: in vivo
Cerebellum [20] = assay: Biodistribution in Sprague-Dawley rat cerebellum at 14.8 to 18.5 MBq, iv measured at 60 mins post-injection by gamma counting analysis; format: ADME, organism-based; conditions: in vivo, 1 h
Muscle tissue [21] = assay: Biodistribution in Sprague-Dawley rat muscle at 14.8 to 18.5 MBq, iv treated with MP-10 for 5 mins prior to compound administration measured at 30 mins post-injection by gamma counting analysis; format: ADME, organism-based; conditions: in vivo, 0.5 h
Blood [22] = assay: Biodistribution in Sprague-Dawley rat blood at 14.8 to 18.5 MBq, iv measured at 30 mins post-injection by gamma counting analysis; format: ADME, organism-based; conditions: in vivo, 0.5 h
Lung [23] = assay: Biodistribution in Sprague-Dawley rat lung at 14.8 to 18.5 MBq, iv measured at 30 mins post-injection by gamma counting analysis; format: ADME, organism-based; conditions: in vivo, 0.5 h
Liver [24] = assay: Biodistribution in Sprague-Dawley rat liver at 14.8 to 18.5 MBq, iv measured at 60 mins post-injection by gamma counting analysis; format: ADME, organism-based; conditions: in vivo, 1 h
Plasma [25] = assay: Drug metabolism in iv dosed cynomolgus monkey plasma assessed as retention time by HPLC analysis; format: ADME, organism-based, Macaca fascicularis; conditions: in vivo
Nucleic Acid [26] = assay: Ratio of drug level in striatum to cerebellum in Sprague-Dawley rat at 14.8 to 18.5 MBq, iv measured at 60 mins post-injection by gamma counting analysis; format: ADME, organism-based; conditions: in vivo, 1 h
[27] = Biodistribution in cynomolgus monkey white matter at 260 to 370 MBq, iv measured at 20 to 100 mins post-injection by microPET analysis; format: ADME, organism-based, Macaca fascicularis; conditions: in vivo
Blood [28] = assay: Biodistribution in Sprague-Dawley rat blood at 14.8 to 18.5 MBq, iv treated with MP-10 for 5 mins prior to compound administration measured at 30 mins post-injection by gamma counting analysis; format: ADME, organism-based; conditions: in vivo, 0.5 h
Liver [29] = assay: Biodistribution in Sprague-Dawley rat liver at 14.8 to 18.5 MBq, iv measured at 30 mins post-injection by gamma counting analysis; format: ADME, organism-based; conditions: in vivo, 0.5 h
Cerebellum [30] = assay: Biodistribution in Sprague-Dawley rat cerebellum at 14.8 to 18.5 MBq, iv measured at 5 mins post-injection by gamma counting analysis; format: ADME, organism-based; conditions: in vivo
Frontal cortex = assay: Biodistribution in cynomolgus monkey frontal cortex at 260 to 370 MBq, iv measured at 20 to 100 mins post-injection by microPET analysis; format: ADME, organism-based, Macaca fascicularis; conditions: in vivo
Heart [31] = assay: Biodistribution in Sprague-Dawley rat heart at 14.8 to 18.5 MBq, iv treated with MP-10 for 5 mins prior to compound administration measured at 30 mins post-injection by gamma counting analysis; format: ADME, organism-based; conditions: in vivo, 0.5 h
Brain [32] = assay: Biodistribution in Sprague-Dawley rat brain at 14.8 to 18.5 MBq, iv measured at 5 mins post-injection by gamma counting analysis; format: ADME, organism-based; conditions: in vivo
[33] = Biodistribution in cynomolgus monkey hippocampus at 260 to 370 MBq, iv measured at 20 to 100 mins post-injection by microPET analysis; format: ADME, organism-based, Macaca fascicularis; conditions: in vivo
Lung [34] = assay: Biodistribution in Sprague-Dawley rat lung at 14.8 to 18.5 MBq, iv measured at 60 mins post-injection by gamma counting analysis; format: ADME, organism-based; conditions: in vivo, 1 h
Striatum [35] = assay: Biodistribution in Sprague-Dawley rat striatum at 14.8 to 18.5 MBq, iv measured at 60 mins post-injection by gamma counting analysis; format: ADME, organism-based; conditions: in vivo, 1 h
Rattus norvegicus [36] = assay: Biodistribution in Sprague-Dawley rat fat at 14.8 to 18.5 MBq, iv treated with MP-10 for 5 mins prior to compound administration measured at 30 mins post-injection by gamma counting analysis; format: ADME, organism-based, Adipose tissue; conditions: in vivo, 0.5 h
Kidney = assay: Biodistribution in Sprague-Dawley rat kidney at 14.8 to 18.5 MBq, iv measured at 60 mins post-injection by gamma counting analysis; format: ADME, organism-based; conditions: in vivo, 1 h
[37] = Biodistribution in cynomolgus monkey temporal cortex at 260 to 370 MBq, iv measured at 20 to 100 mins post-injection by microPET analysis; format: ADME, organism-based, Macaca fascicularis; conditions: in vivo

Structure (SMILES): Cn1cc(-c2ccncc2)c(-c2ccc(OCc3nc4ccccc4cc3O[11CH3])cc2)n1
- Drug uptake (Brain [1]): 0.133 % ID/g
- Drug uptake (Cerebellum [2]): 0.119 % ID/g
- Retention_time (Plasma [3]): 3 min
- Drug uptake (Heart [4]): 0.296 % ID/g
- Drug uptake (Heart [5]): 0.199 % ID/g
- Drug uptake (Striatum [6]): 0.488 % ID/g
- Drug uptake (Brain [7]): 0.128 % ID/g
- Drug uptake (Brain [8]): 0.095 % ID/g
- Drug uptake (Striatum [9]): 0.294 % ID/g
- Stability (Plasma [10]): 5%
- Drug uptake (Striatum [11]): 0.452 % ID/g
- Drug uptake (Liver [12]): 5.781 % ID/g
- Drug uptake (Blood [13]): 0.275 % ID/g
- Drug uptake (Rattus norvegicus [14]): 0.5 % ID/g
- Ratio (Nucleic Acid [15]): 4.6
- Drug uptake (Muscle tissue [16]): 0.412 % ID/g
- Stability [17]: 25%
- Drug uptake (Liver [18]): 11.005 % ID/g
- Drug uptake [19]: Active
- Drug uptake (Cerebellum [20]): 0.064 % ID/g
- Drug uptake (Muscle tissue [21]): 0.257 % ID/g
- Drug uptake (Blood [22]): 0.321 % ID/g
- Drug uptake (Lung [23]): 0.408 % ID/g
- Drug uptake (Liver [24]): 6.398 % ID/g
- Retention_time (Plasma [25]): 8 min
- Ratio (Nucleic Acid [26]): 6
- Drug uptake [27]: Active
- Drug uptake (Blood [28]): 0.407 % ID/g
- Drug uptake (Liver [29]): 7.345 % ID/g
- Drug uptake (Cerebellum [30]): 0.229 % ID/g
- Drug uptake (Frontal cortex): Active
- Drug uptake (Heart [31]): 0.34 % ID/g
- Drug uptake (Brain [32]): 0.231 % ID/g
- Drug uptake [33]: Active
- Drug uptake (Lung [34]): 0.299 % ID/g
- Drug uptake (Striatum [35]): 0.38 % ID/g
- Drug uptake (Rattus norvegicus [36]): 1.353 % ID/g
- Drug uptake (Kidney): 1.275 % ID/g
- Drug uptake [37]: Active

Structure (SMILES): Cn1cc(-c2ccncc2)c(-c2ccc(OCc3cc(O[11CH3])c4ccccc4n3)cc2)n1
- Drug uptake (Brain [1]): 0.087 % ID/g
- Drug uptake (Cerebellum [2]): 0.112 % ID/g
- Retention_time (Plasma [3]): 3 min
- Drug uptake (Heart [4]): 0.187 % ID/g
- Drug uptake (Heart [5]): 0.121 % ID/g
- Drug uptake (Striatum [6]): 0.352 % ID/g
- Drug uptake (Brain [7]): 0.114 % ID/g
- Drug uptake (Brain [8]): 0.057 % ID/g
- Drug uptake (Striatum [9]): 0.175 % ID/g
- Stability (Plasma [10]): 5%
- Drug uptake (Striatum [11]): 0.23 % ID/g
- Drug uptake (Liver [12]): 4.723 % ID/g
- Drug uptake (Blood [13]): 0.152 % ID/g
- Drug uptake (Rattus norvegicus [14]): 0.278 % ID/g
- Ratio (Nucleic Acid [15]): 3.8
- Drug uptake (Muscle tissue [16]): 0.258 % ID/g
- Stability [17]: 25%
- Drug uptake (Liver [18]): 7.08 % ID/g
- Drug uptake [19]: Active
- Drug uptake (Cerebellum [20]): 0.046 % ID/g
- Drug uptake (Muscle tissue [21]): 0.224 % ID/g
- Drug uptake (Blood [22]): 0.192 % ID/g
- Drug uptake (Lung [23]): 0.233 % ID/g
- Drug uptake (Liver [24]): 8.941 % ID/g
- Retention_time (Plasma [25]): 9 min
- Ratio (Nucleic Acid [26]): 4.5
- Drug uptake [27]: Active
- Drug uptake (Blood [28]): 0.343 % ID/g
- Drug uptake (Liver [29]): 10.085 % ID/g
- Drug uptake (Cerebellum [30]): 0.215 % ID/g
- Drug uptake (Frontal cortex): Active
- Drug uptake (Heart [31]): 0.31 % ID/g
- Drug uptake (Brain [32]): 0.21 % ID/g
- Drug uptake [33]: Active
- Drug uptake (Lung [34]): 0.163 % ID/g
- Drug uptake (Striatum [35]): 0.201 % ID/g
- Drug uptake (Rattus norvegicus [36]): 0.697 % ID/g
- Drug uptake (Kidney): 0.758 % ID/g
- Drug uptake [37]: Active
